Measured values taken from patent US9447055B1, “α-amino esters of hydroxypropylthiazolidine carboxamide derivative and salt form, crystal polymorph thereof” (Merck Serono S.A., priority 2016, dated 2016).
Values after ≈ are worked out from the molar mass of the structure shown. “Also recorded” adds a separate entry of the source.

Tests used:
[1] = in vivo conversion of compound I to compound II; conditions: following gastrointestinal tract administration
Procedure: The invention is based on the discovery that compound I ((3S)-3-({[(2S)-3-(biphenyl-4-ylsulfonyl)-1,3-thiazolidin-2-yl]carbonyl}-amino)-3-(4-fluorophenyl)propyl L-valinate, represented by formula I, below) and salts thereof are converted in vivo to 3-([1,1′-biphenyl]-4-ylsulfonyl)-N-[1-(4-fluorophenyl)-3-hydroxypropyl]-1,3-thiazolidine-2-carboxamide (represented by formula II, below).
Compound II is a competitive and reversible prostaglandin F2α receptor antagonist (human FP2α receptor Ki=6 nM) that is under development for the management of pre-term labor by inhibition of premature uterine contractions.

PepT1 transporter = PepT1 transporter (Homo sapiens (Human), UniProt P46059); experiment: mucosal-to-serosal Caco-2 transport after Gly-Sar pre-treatment; type: in vitro ADME; conditions: 10 mM Gly-Sar pre-treatment; for compound I passage to receiving compartment after Gly-Sar pre-treatment: A→B
Procedure: The differentiated cells were pre-treated for 30 min. with 10 mM of Gly-Sar in order to block the active transporter PepT1.
(§1) Compound I was dissolved in HBSS buffer (1% DMSO final concentration) at the concentrations of 1.5, 3 and 6 μM. Each concentration/sampling time was run in duplicate well. The test was performed in a gradient pH: the apical compartment (mucosal) was at pH 6.5, the basolateral compartment (serosal) was at pH 7.4.
(§2) Apical to basolateral (A→B, mucosal to serosal) transport: 200 μL of each concentration of compound I was added to the apical compartment and 400 μL of HBSS was added to the basolateral compartment. The plates were incubated at 37° C. An aliquot of the basolateral compartment was sampled after 60 and 120 min (t=60 and t=120). An aliquot of the apical compartment was sampled at the starting time (t=0) and after 120 min. (t=120). All samples were analyzed by LC/MS monitoring both compound I and the appearance of compound II.

human FP-R = human FP-R (Homo sapiens (Human), UniProt P43088); experiment: competitive radioligand binding, recombinant FP receptor expressed in HEK293-EBNA cells
Sequence of human FP-R (P43088 whole entry): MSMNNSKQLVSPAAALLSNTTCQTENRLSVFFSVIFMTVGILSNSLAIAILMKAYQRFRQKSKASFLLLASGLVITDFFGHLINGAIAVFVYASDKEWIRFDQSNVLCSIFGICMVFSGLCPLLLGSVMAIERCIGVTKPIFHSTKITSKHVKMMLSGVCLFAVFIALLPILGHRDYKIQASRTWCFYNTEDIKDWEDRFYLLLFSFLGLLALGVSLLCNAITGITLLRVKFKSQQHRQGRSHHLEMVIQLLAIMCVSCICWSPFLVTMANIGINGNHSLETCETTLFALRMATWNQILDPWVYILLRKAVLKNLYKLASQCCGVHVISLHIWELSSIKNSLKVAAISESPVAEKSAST
Procedure: The potency of inhibition of compound I and compound II on prostaglandin F2α receptor was assessed by analyzing the affinity of these compounds for recombinant FP receptor expressed in HEK293-EBNA cells.

Caco-2 cell monolayer = experiment: bidirectional permeability across Caco-2 cell monolayers; type: in vitro ADME, human; conditions: for efflux: bi-directional
Procedure: as §1
as §2, with “(t=120).” for “(t=120). All samples were analyzed by LC/MS monitoring both compound I and the appearance of compound II.”
(§3) Basolateral to apical (B→A, serosal to mucosal) transport: 400 μL of each concentration of compound I was added to the basolateral compartment and 200 μL of HBSS was added to the apical compartment. The plates were incubated at 37° C. An aliquot of the apical compartment was sampled after 60 and 120 min (t=60 and t=120). An aliquot of the basolateral compartment was sampled at the starting time (t=0) and after 120 min. (t=120). All samples were analyzed by LC/MS monitoring both compound I and the appearance of compound II.
as §1, with “II” for “I”
as §2, with “II” for “I”, “(t=120).” for “(t=120). All samples were analyzed by LC/MS monitoring both compound I and the appearance of compound II.”
as §3, with “of compound II was added” for “of compound I was added”, “LC/MS monitoring compound II.” for “LC/MS monitoring both compound I and the appearance of compound II.”

[2] = stability in HBSS transport buffer; type: in vitro ADME; conditions: 37° C., 60 and 120 minutes
Procedure: Stability of both compound I and compound II was assessed during the test. These compounds were dissolved in HBSS buffer (1% DMSO final concentration) at the concentrations of 1.5, 3 and 6 μM. An aliquot of each solution was sampled at time zero (t=0) to assess the starting concentrations of the compounds. The solutions were incubated at 37° C. for the duration of the transport experiment. An aliquot of each solution was sampled at the end of experiment (t=120) to assess the final concentrations of compound I and compound II. Samples were analyzed by LC-MS.

[3] = tested on: spontaneous uterine contractions; experiment: spontaneous uterine activity in late-term anaesthetized pregnant rat; type: in vivo; conditions: late-term pregnant rats; for reduction of spontaneous uterine contractions: i.v. or oral, maximal effect at 30 mg/kg i.v. and 60 mg/kg oral; for intravenous activity compared with atosiban: i.v.
From the text: The tocolytic effects of compound I and compound II were investigated in a model of spontaneous uterine activity in late-term (19-21 days of gestation) anaesthetized pregnant rat (Kawarabayashi et al. Am. J. Obstet. Gynecol. 175:1348-1355 (1996) and Shinkai et al. J. Pharm. Pharmacol. 52:1417-1423 (2000)). Briefly, late-term pregnant female rats were anaesthetized with urethane. One pregnant uterine horn was exposed and a polyethylene catheter bearing on the tip a latex balloon filled with saline was inserted into the lumen. The catheter was connected to an amplifying/recording system via a pressure-transducer. […] For the i.v. administration the uterine contractile activity was quantified by calculating the AUC during the 10 min injection period. The percent variation of the AUC values relative to the spontaneous uterine response observed after each compound administration was calculated in comparison to the value recorded before the first dose-administration (basal value). The effect of compound I or compound II was evaluated by comparing pre- and post-treatment luminal uterine pressure values. For the oral administration the same computation procedure was applied at different time points after treatment. Statistical differences between treatment groups at each time-point were determined by using one-way ANOVA followed by Tukey test. Both compounds intravenously or orally administered were able to markedly reduce spontaneous uterine contractions by around 40-50% (maximal effect obtained at 30 mg/kg by i.v. route and 60 mg/kg by oral route).

[4] = non-specific binding to cell-free transwells; type: in vitro ADME
Procedure: Non-specific binding and recovery was assessed across cell-free transwells.
Compound I was tested at 1.5, 3 and 6 μM in duplicate cell-free transwells. The test was performed in a pH gradient between the apical and the basolateral compartment. […] The following sampling times were performed: 60 and 120 min for the basolateral compartment (receiver) and 120 min for the apical compartment (donor). Samples obtained were analyzed by LC-MS, both compound I and compound II were monitored in order to assess percent of recovery.

[5] = solubility in water and simulated intestinal media; type: physicochemical
[6] = aqueous solubility of compound I salts; type: physicochemical; conditions: water
[7] = moisture sorption/desorption and relative humidity stability of salts; type: physicochemical; conditions: for hygroscopicity: moisture balance data, hydrochloride
Procedure: Moisture sorption/desorption (MB) data were collected on a VTI SGA-100 Vapor Sorption Analyzer. Sorption and desorption data were collected over a range of 5% to 95% relative humidity (RH) at 10% RH intervals under a nitrogen purge. Samples were not dried prior to analysis. Equilibrium criteria used for analysis were less than 0.0100% weight change in 5 minutes, with a maximum equilibration time of 3 hours if the weight criterion was not met. Data were not corrected for the initial moisture content of the samples. NaCl and PVP were used as calibration standards.

[8] = tested on: panel of 50 receptors, channels and enzymes binding sites; conditions: 1 μM
human FP = human FP (Homo sapiens (Human), UniProt P43088); experiment: IP3 synthesis in FP-transfected HEK293-EBNA cells; type: cell-based
Sequence of human FP (P43088 whole entry): as above
Procedure: The functional characterization of compound II on human FP was performed in transfected HEK293-EBNA cells.

[9] = target: prostaglandin E receptor 2 (EP2) (Homo sapiens (Human), UniProt P43116); conditions: FP over EP2
Sequence of prostaglandin E receptor 2 (EP2) (P43116 whole entry): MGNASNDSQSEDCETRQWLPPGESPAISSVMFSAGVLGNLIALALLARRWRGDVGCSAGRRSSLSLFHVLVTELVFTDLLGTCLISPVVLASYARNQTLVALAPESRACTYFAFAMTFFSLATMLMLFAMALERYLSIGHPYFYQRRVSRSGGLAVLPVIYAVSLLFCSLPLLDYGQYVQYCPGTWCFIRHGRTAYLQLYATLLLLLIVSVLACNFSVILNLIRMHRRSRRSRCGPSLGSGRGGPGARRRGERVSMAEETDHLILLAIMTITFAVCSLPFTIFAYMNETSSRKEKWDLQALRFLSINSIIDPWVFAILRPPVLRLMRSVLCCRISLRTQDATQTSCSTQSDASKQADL
Procedure: (§4) Selectivity of compound II was tested against all eight prostaglandin receptor subtypes.

[10] = tested on: other prostaglandin receptor subtypes; conditions: FP over other subtypes
Procedure: as §4

[11] = FaSSIF pH 6.5, read-out: Solubility in FaSSIF
[12] = FeSSIF pH 5.0, read-out: Solubility in FeSSIF
[13] = water, read-out: Solubility in water

## CC(C)[C@H](N)C(=O)OCC[C@H](NC(=O)[C@@H]1SCCN1S(=O)(=O)c1ccc(-c2ccccc2)cc1)c1ccc(F)cc1 [Compound I, (3S)-3-({[(2S)-3-(biphenyl-4-ylsulfonyl)-1,3-thiazolidin-2-yl]carbonyl}-amino)-3-(4-fluorophenyl)propyl L-valinate]
[1]
  conversion to compound II: rapidly converted to compound II
PepT1 transporter
  PepT1 mediation of transport: likely not mediated by PepT1
  compound I passage to receiving compartment after Gly-Sar pre-treatment: not detected
PepT1 transporter; listed as compound I
  compound I passage to receiving compartment after Gly-Sar pre-treatment: no passage
Human FP-R
  Ki: 1 nM
Caco-2 cell monolayer; A→B, 60 and 120 minutes, 1.5, 3 and 6 μM
  compound I in basolateral (receiving) compartment, apical to basolateral: not detected
Caco-2 cell monolayer; B→A, 60 and 120 minutes
  compound I in apical (receiving) compartment, basolateral to apical: not detected
Caco-2 cell monolayer; apical compartment, 120 min
  recovery of compound I in apical compartment at end of apical to basolateral experiment: primarily recovered in the form of the de-esterified variant, compound II; also recorded: low recovery
Caco-2 cell monolayer; bi-directional permeability test
  passage through the Caco-2 cell monolayer: did not pass through the cell monolayer
[2]
  stability in HBSS buffer: stable
[3]
  reduction of spontaneous uterine contractions: 40-50%
  intravenous activity compared with atosiban: comparable or slightly higher than that of the tocolytic drug atosiban
[4]; cell-free transwells, 1.5, 3 and 6 μM
  non-specific binding: excluded
[4]; cell-free transwells, any dose tested
  detection in basolateral compartment of cell-free transwell: not detected
[5]; [11]
  solubility: 70 µg/mL (≈ 117 µM)
[5]; [12]
  solubility: 90 µg/mL (≈ 150 µM)
[5]; [13]
  solubility: 380 µg/mL (≈ 634 µM)

## CC(C)[C@H](N)C(=O)OCC[C@H](NC(=O)[C@@H]1SCCN1S(=O)(=O)c1ccc(-c2ccccc2)cc1)c1ccc(F)cc1.Cl [Compound III, (3S)-3-({[(2S)-3-(biphenyl-4-ylsulfonyl)-1,3-thiazolidin-2-yl]carbonyl}-amino)-3-(4-fluorophenyl)propyl L-valinate hydrochloride]
[6]
  solubility: < 1000 µg/mL
[7]; 2 days at approximately 95% RH
  deliquescence: did not deliquesce
[7]; desorption after sorption to 95% RH
  weight loss upon desorption: approximately 0.7%
[7]; from 5 to 95% relative humidity
  weight gain on sorption: Approximately 0.9%
[7]
  hygroscopicity: low hygroscopicity
[7]; listed as chloride salt
  hygroscopicity: non-hygroscopic
[7]; listed as hydrochloride salt
  hygroscopicity: low hygroscopicity; also recorded: non-hygroscopic

## O=C(N[C@@H](CCO)c1ccc(F)cc1)[C@@H]1SCCN1S(=O)(=O)c1ccc(-c2ccccc2)cc1 (stereo in doubt) [Compound II, 3-([1,1′-biphenyl]-4-ylsulfonyl)-N-[1-(4-fluorophenyl)-3-hydroxypropyl]-1,3-thiazolidine-2-carboxamide]
[8]
  Selectivity in panel of 50 receptors, channels and enzymes binding sites: high selectivity for FP
Human FP-R
  Ki: 6 nM
Caco-2 cell monolayer
  passive passage through the Caco-2 monolayer: good passive passage
  efflux: No efflux was detected
Caco-2 cell monolayer; A→B
  passage apical to basolateral: good percentage of passage
Caco-2 cell monolayer; B→A
  permeability basolateral to apical: low rate of permeability
Caco-2 cell monolayer; listed as compound II
  efflux: Evidence was not found that compound II might be a substrate for an efflux transporter
[2]
  stability in HBSS buffer: stable
Human FP; FP/HEK293-EBNA cells, read-out: inhibition of synthesis of IP3, IC50
  IC50: 60 nM
Human FP; tested up to 10 μM, added alone
  agonist activity: synthesis of IP3 when added alone: did not induce any synthesis of IP3
[3]
  reduction of spontaneous uterine contractions: 40-50%
  intravenous activity compared with atosiban: comparable or slightly higher than that of the tocolytic drug atosiban
[5]; [11]
  solubility: 0.4 µg/mL (≈ 0.799 µM)
[5]; [12]
  solubility: 10 µg/mL (≈ 20 µM)
[5]; [13]
  solubility: 0.4 µg/mL (≈ 0.799 µM)
[9]
  Selectivity versus prostaglandin E receptor 2 (EP2): approximately 10 fold
[10]
  Selectivity against other prostaglandin receptors: higher than 100 fold
